# Source: PubChem BioAssay (NCI)
#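 GI50 = concentration required for 50% inhibition of growth. Definition used: TGI = concentration required for complete inhibition of growth.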
# Columns and labels:
# Test in all cases: growth of human tumour cells (NCI), 384-well format
# CCRF-CEM leukemia = system: CCRF-CEM leukemia
# SN12C renal = system: SN12C renal
# HOP-92 NSCLC = system: HOP-92 NSCLC
# U251 glioblastoma = system: U251 glioblastoma
# SK-OV-3 ovarian = system: SK-OV-3 ovarian
# HOP-62 NSCLC = system: HOP-62 NSCLC
# HT29 colon = system: HT29 colon
# HCT-15 colon = system: HCT-15 colon
# MOLT-4 leukemia = system: MOLT-4 leukemia
# CAKI-1 renal = system: CAKI-1 renal
# K-562 leukemia = system: K-562 leukemia
# BT-549 breast = system: BT-549 breast
# SW-620 colon = system: SW-620 colon
# KM12 colon = system: KM12 colon
# LOX IMVI melanoma = system: LOX IMVI melanoma
# OVCAR-4 ovarian = system: OVCAR-4 ovarian
# IGROV1 ovarian = system: IGROV1 ovarian
# PC-3 prostate = system: PC-3 prostate
# SNB-75 CNS = system: SNB-75 CNS
# COLO 205 colon = system: COLO 205 colon
# DU-145 prostate = system: DU-145 prostate
# HL-60(TB) leukemia = system: HL-60(TB) leukemia
# HS 578T breast = system: HS 578T breast
# MALME-3M melanoma = system: MALME-3M melanoma
# SF-268 CNS = system: SF-268 CNS
# MCF7 breast = system: MCF7 breast
# TK-10 renal = system: TK-10 renal
# SK-MEL-28 melanoma = system: SK-MEL-28 melanoma
# NCI-H23 lung = system: NCI-H23 lung
# NCI-H460 NSCLC = system: NCI-H460 NSCLC
# NCI-H322M lung = system: NCI-H322M lung
# SR leukemia = system: SR leukemia
# ACHN renal = system: ACHN renal
# SK-MEL-2 melanoma = system: SK-MEL-2 melanoma
# MDA-MB-435 melanoma = system: MDA-MB-435 melanoma
# SK-MEL-5 melanoma = system: SK-MEL-5 melanoma
# MDA-MB-468 breast = system: MDA-MB-468 breast
# SNB-19 CNS = system: SNB-19 CNS
# UACC-62 melanoma = system: UACC-62 melanoma
# UO-31 renal = system: UO-31 renal
# A549 NSCLC = system: A549 NSCLC
# 786-0 renal = system: 786-0 renal
# A498 renal = system: A498 renal
# OVCAR-3 ovarian = system: OVCAR-3 ovarian
# M14 melanoma = system: M14 melanoma
# NCI-H522 lung = system: NCI-H522 lung
# RXF 393 renal = system: RXF 393 renal
# SF-539 CNS = system: SF-539 CNS
# NCI-H226 lung = system: NCI-H226 lung
# SF-295 CNS = system: SF-295 CNS
# UACC-257 melanoma = system: UACC-257 melanoma
# HCC-2998 colon = system: HCC-2998 colon
# NCI/ADR-RES ovarian = system: NCI/ADR-RES ovarian
# HCT-116 colon = system: HCT-116 colon
# MDA-MB-231 breast = system: MDA-MB-231 breast
# RPMI-8226 leukemia = system: RPMI-8226 leukemia
# T-47D breast = system: T-47D breast
# OVCAR-5 ovarian = system: OVCAR-5 ovarian
compound,measurement,setting,value
COc1cccc(Nc2ncnn3ccc(CN4CC[C@@H](N)[C@H](O)C4)c23)c1,GI50,CCRF-CEM leukemia,14.7 µM
same,TGI,CCRF-CEM leukemia,28 µM
same,GI50,SN12C renal,0.18 µM
same,TGI,SN12C renal,12 µM
same,GI50,HOP-92 NSCLC,6.62 µM
same,TGI,HOP-92 NSCLC,28.9 µM
same,GI50,U251 glioblastoma,12.9 µM
same,TGI,U251 glioblastoma,26.4 µM
same,GI50,SK-OV-3 ovarian,0.0333 µM
same,TGI,SK-OV-3 ovarian,0.607 µM
same,GI50,HOP-62 NSCLC,2.7 µM
same,TGI,HOP-62 NSCLC,30.2 µM
same,GI50,HT29 colon,12.8 µM
same,TGI,HT29 colon,26.4 µM
same,GI50,HCT-15 colon,2.32 µM
same,TGI,HCT-15 colon,32.7 µM
same,GI50,MOLT-4 leukemia,0.8 µM
same,TGI,MOLT-4 leukemia,13.9 µM
same,GI50,CAKI-1 renal,0.295 µM
same,TGI,CAKI-1 renal,7.12 µM
same,GI50,K-562 leukemia,0.0847 µM
same,TGI,K-562 leukemia,0.228 µM
same,GI50,BT-549 breast,7.04 µM
same,TGI,BT-549 breast,20.5 µM
same,GI50,SW-620 colon,17.5 µM
same,TGI,SW-620 colon,32.5 µM
same,GI50,KM12 colon,3.54 µM
same,TGI,KM12 colon,15.7 µM
same,GI50,LOX IMVI melanoma,7.68 µM
same,TGI,LOX IMVI melanoma,20.4 µM
same,GI50,OVCAR-4 ovarian,24.8 µM
same,TGI,OVCAR-4 ovarian,> 100 µM
same,TGI,IGROV1 ovarian,0.512 µM
same,GI50,PC-3 prostate,13.3 µM
same,TGI,PC-3 prostate,87.7 µM
same,GI50,SNB-75 CNS,0.247 µM
same,TGI,SNB-75 CNS,1.37 µM
same,GI50,COLO 205 colon,14.8 µM
same,TGI,COLO 205 colon,28.2 µM
same,GI50,DU-145 prostate,1.11 µM
same,TGI,DU-145 prostate,28.4 µM
same,GI50,HL-60(TB) leukemia,17.6 µM
same,TGI,HL-60(TB) leukemia,31.5 µM
same,GI50,HS 578T breast,1.49 µM
same,TGI,HS 578T breast,6.24 µM
same,GI50,MALME-3M melanoma,12.8 µM
same,TGI,MALME-3M melanoma,25.5 µM
same,GI50,SF-268 CNS,4.4 µM
same,TGI,SF-268 CNS,70.3 µM
same,GI50,MCF7 breast,13.9 µM
same,TGI,MCF7 breast,27.4 µM
same,GI50,TK-10 renal,0.0524 µM
same,TGI,TK-10 renal,1.27 µM
same,GI50,SK-MEL-28 melanoma,18.3 µM
same,TGI,SK-MEL-28 melanoma,32.4 µM
same,GI50,NCI-H23 lung,2.42 µM
same,TGI,NCI-H23 lung,16.8 µM
same,GI50,NCI-H460 NSCLC,11.3 µM
same,TGI,NCI-H460 NSCLC,24.3 µM
same,GI50,NCI-H322M lung,0.0313 µM
same,TGI,NCI-H322M lung,0.941 µM
same,GI50,SR leukemia,12.5 µM
same,TGI,SR leukemia,25.2 µM
same,GI50,ACHN renal,0.0368 µM
same,TGI,ACHN renal,5.84 µM
same,GI50,SK-MEL-2 melanoma,26.7 µM
same,TGI,SK-MEL-2 melanoma,41.5 µM
same,GI50,MDA-MB-435 melanoma,18.2 µM
same,TGI,MDA-MB-435 melanoma,36.6 µM
same,GI50,SK-MEL-5 melanoma,15.6 µM
same,TGI,SK-MEL-5 melanoma,29 µM
same,GI50,MDA-MB-468 breast,0.0266 µM
same,TGI,MDA-MB-468 breast,0.203 µM
same,GI50,SNB-19 CNS,15.4 µM
same,TGI,SNB-19 CNS,83.6 µM
same,GI50,UACC-62 melanoma,16.1 µM
same,TGI,UACC-62 melanoma,29.8 µM
same,GI50,UO-31 renal,1.1 µM
same,TGI,UO-31 renal,7.47 µM
same,GI50,A549 NSCLC,0.902 µM
same,TGI,A549 NSCLC,14.4 µM
same,GI50,786-0 renal,0.989 µM
same,TGI,786-0 renal,14.4 µM
same,GI50,A498 renal,1.3 µM
same,TGI,A498 renal,9 µM
same,GI50,OVCAR-3 ovarian,0.0815 µM
same,TGI,OVCAR-3 ovarian,21.8 µM
same,GI50,M14 melanoma,19 µM
same,TGI,M14 melanoma,33.2 µM
same,TGI,NCI-H522 lung,9.99 µM
same,GI50,RXF 393 renal,0.435 µM
same,TGI,RXF 393 renal,3.21 µM
same,GI50,SF-539 CNS,1.55 µM
same,TGI,SF-539 CNS,13.1 µM
same,GI50,NCI-H226 lung,1.97 µM
same,TGI,NCI-H226 lung,12.4 µM
same,GI50,SF-295 CNS,13.9 µM
same,TGI,SF-295 CNS,30.9 µM
same,GI50,UACC-257 melanoma,11.3 µM
same,TGI,UACC-257 melanoma,23.5 µM
same,GI50,HCC-2998 colon,12.5 µM
same,TGI,HCC-2998 colon,25.5 µM
same,GI50,NCI/ADR-RES ovarian,11.2 µM
same,TGI,NCI/ADR-RES ovarian,27.6 µM
same,GI50,HCT-116 colon,12.3 µM
same,TGI,HCT-116 colon,25.6 µM
same,GI50,MDA-MB-231 breast,1.99 µM
same,TGI,MDA-MB-231 breast,25.4 µM
same,GI50,RPMI-8226 leukemia,16.4 µM
same,TGI,RPMI-8226 leukemia,30.2 µM
same,GI50,T-47D breast,15.8 µM
same,TGI,T-47D breast,30.2 µM
same,GI50,OVCAR-5 ovarian,0.686 µM
same,TGI,OVCAR-5 ovarian,43.9 µM
